In patent US10294202B2, “Pyrrolidinones as herbicides” (FMC Corporation, priority 2013, dated 2019):

What was measured:
sedge, umbrella = assay: Test F flood (paddy) test; type: in vivo, Cyperus difformis; settings: 21 d, scale 0-100
Description: (§1) Three plastic pots (ca. 16-cm diameter) per rate were partially filled with sterilized Tama silt loam soil comprising a 35:50:15 ratio of sand, silt and clay and 2.6% organic matter. Separate plantings for each of the three pots were as follows. Seeds from the U.S. of monochoria (Monochoria vaginalis), sedge, umbrella (small-flower umbrella sedge, Cyperus difformis), bulrush, […] bulrush, Scirpus juncoides), and […] (purple […] coccinea), were planted into one 16-cm pot for each rate. Seeds from the U.S. of flatsedge, rice (rice flatsedge, Cyperus iria), sprangletop, Brdd. (bearded sprangletop, Leptochloa fascicularis), one stand of 9 or 10 water seeded rice seedlings (Rice, W.S. Jap, Oryza sativa cv. 'Japonica-[…]' or Rice, W.S. Ind, 'Indica'), and two stands of 3 or 4 seedlings of rice, transplanted (transplanted rice, Oryza sativa cv. 'Japonica-[…]') were planted into one 16-cm pot for each rate. Seeds from the U.S. of barnyardgrass (Echinochloa crus-galli), […] (common […], Alisma plantago-aquatica), and watergrass, late (late watergrass, Echinochloa oryzicola) were planted into one 16-cm pot for each rate. Plantings were sequential so that crop and weed species were at the 2.0 to 2.5-leaf stage at time of treatment. Potted plants were grown in a greenhouse with day/night temperature settings of 30/27° C., and supplemental balanced lighting was provided to maintain a 16-h photoperiod. Test pots were maintained in the greenhouse until test completion. At time of treatment, test pots were flooded to 3 cm above the soil surface, treated by application of test compounds directly to the paddy water, and then maintained at that water depth for the duration of the test. Effects of treatments on rice and weeds were visually evaluated by comparison to untreated controls after 21 d. Plant response ratings, summarized in Table F, are based on a scale of 0 to 100 where 0 is no effect and 100 is complete control. A dash (-) response means no test result.

bulrush, hardstem = assay: Test F flood (paddy) test; type: in vivo, Scirpus juncoides; settings: 21 d, scale 0-100
Description: as §1, with “Potted plants were grown in a greenhouse with day/night temperature settings of 30/27° C., and supplemental balanced lighting was provided to maintain a 16-h photoperiod. Test pots were maintained in the greenhouse until test completion. At time of treatment, test pots were flooded to 3 cm above the soil surface, treated by application of test compounds directly to the paddy water, and then maintained at that water depth for the duration of the test.” left out, “Plant response ratings, summarized in Table F, are based on a scale of 0 to 100 where 0 is no effect and 100 is complete control. A dash (-) response means no test result.” left out

Rice, W.S. Jap = assay: Test F flood (paddy) test; type: in vivo, Oryza sativa cv. Japonica—M202; settings: 21 d, scale 0-100
How it was run: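 Greenhouse paddy, 30/27 °C day/night, 16-h light; sterilized Tama silt loam, 2.6% OM. Plants at 2.0–2.5 leaves; flood 3 cm, compound added directly to water. Visual score at 21 d, 0 = no effect, 100 = complete control, relative to untreated.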

barley (winter barley) = assay: Test C postemergence herbicide test; type: in vivo, Hordeum vulgare
Description: (§2) At the same time, plants selected from these crop and weed species and also barley (winter barley, Hordeum vulgare), […]), chickweed (common chickweed, Stellaria media), deadnettle (henbit deadnettle, Lamium amplexicaule), and canarygrass (littleseed canarygrass, Phalaris minor) were planted in pots containing Redi-Earth® planting medium (Scotts Company, 14111 Scottslawn Road, Marysville, Ohio 43041) comprising spaghnum peat moss, vermiculite, wetting agent and starter nutrients and treated with postemergence applications of test chemicals formulated in the same manner. Plants ranged in height from 2 to 18 cm (1- to 4-leaf stage) for postemergence treatments. Treated plants and controls were maintained in a greenhouse for 13 to 15 days, after which time all species were compared to controls and visually evaluated. Plant response ratings, summarized in Table C, are based on a scale of 0 to 100 where 0 is no effect and 100 is complete control. A dash (-) response means no test result.

windgrass = assay: Test C postemergence herbicide test; type: in vivo, Apera spica-venti
Description: as §2

canarygrass = assay: Test C postemergence herbicide test; type: in vivo, Phalaris minor
Description: as §2

Rice, W.S. Ind = assay: Test F flood (paddy) test; type: in vivo, Oryza sativa Indica; settings: 21 d, scale 0-100
Description: as §1

cocklebur = assay: Test E preemergence herbicide test; type: in vivo, Xanthium strumarium; design: key: 0 = no effect, 100 = complete control
Description: (§3) Seeds of plant species selected from corn (Zea mays), soybean (Glycine max), velvetleaf (Abutilon theophrasti), lambsquarters (Chenopodium album), wild poinsettia (Euphorbia heterophylla), pigweed, palmer (palmer pigweed, Amaranthus palmeri), waterhemp (common waterhemp, Amaranthus rudis), surinam grass (Brachiaria decumbens), crabgrass, large (large crabgrass, Digitaria sanguinalis), crabgrass, Brazil (Brazilian crabgrass, Digitaria horizontalis), panicum, fall (fall panicum, Panicum dichotomiflorum), foxtail, giant (giant foxtail, Setaria faberii), foxtail, green (green foxtail, Setaria viridis), goosegrass (Eleusine indica), johnsongrass (Sorghum halepense), ragweed (common ragweed, Ambrosia elatior), barnyardgrass (Echinochloa crus-galli), sandbur (southern sandbur, Cenchrus echinatus), arrowleaf […] rhombifolia), ryegrass, Italian (Italian ryegrass, Lolium multiflorum), dayflower, VA (Virginia dayflower, Commelina virginica), field bindweed (Convolvulus arvensis), morningglory (Ipomoea coccinea), nightshade (eastern black nightshade, Solanum ptycanthum), kochia (Kochia scoparia), nutsedge, yellow (yellow nutsedge, Cyperus esculentus), cocklebur (common cocklebur, Xanthium strumarium), smartweed (ladysthumb smartweed, Polygonum Persicaria) and beggarticks (hairy beggarticks, Bidens pilosa), were planted into a silt loam soil and treated preemergence with test chemicals formulated in a non-phytotoxic solvent mixture which included a surfactant. Treated plants and controls were maintained in a greenhouse for 21 days, after which time all species were compared to controls and visually evaluated. Plant response ratings, summarized in Table E, are based on a scale of 0 to 100 where 0 is no effect and 100 is complete control. A dash (-) response means no test result.

pigweed, palmer = assay: Test E preemergence herbicide test; type: in vivo, Amaranthus palmeri; design: key: 0 = no effect, 100 = complete control
Description: as §3

waterplantain = assay: Test F flood (paddy) test; type: in vivo, Alisma plantago-aquatica; settings: 21 d, scale 0-100
Description: as §1

deadnettle = assay: Test C postemergence herbicide test; type: in vivo, Lamium amplexicaule
Description: as §2

[1] = 31 g ai/ha, scale 0 (no effect) to 100 (complete control)
[2] = 62 g ai/ha, scale 0 to 100 (0 no effect, 100 complete control)
[3] = 125 g ai/ha, scale 0 to 100 (0 no effect, 100 complete control)
[4] = 250 g ai/ha, scale 0 to 100 (0 no effect, 100 complete control)

In the case of `O=C1NCC(c2cccc(C(F)(F)F)c2)C1C(=O)Nc1ccccc1F` (racemic) [Compound 3], the “Plant response rating, Sedge, Umbrella” value (sedge, umbrella; 250 g ai/ha) is reported as 0, the “Plant response rating, Sedge, Umbrella” value (sedge, umbrella; 500 g ai/ha) is reported as 0 and the “Plant response rating, Bulrush, Hardstem” value (bulrush, hardstem; 250 g ai/ha) is reported as 0. The “Plant response rating, Bulrush, Hardstem” value (bulrush, hardstem; 500 g ai/ha) was 30, the “Plant response rating, Rice, W.S. Jap” value (Rice, W.S. Jap; 250 g ai/ha) was 0 and the “Plant response rating, Rice, W.S. Jap” value (Rice, W.S. Jap; 500 g ai/ha) was 10.

For `O=C1NCC(c2ccccc2)C1C(=O)Nc1ccccc1F` (racemic) [Compound 81], the “Plant response rating, Barley” value (barley (winter barley); [1]) was 0, the “Plant response rating, Barley” value (barley (winter barley); [2]) was 0 and the “Plant response rating, Barley” value (barley (winter barley); [3]) was 0. For the same compound, the “Plant response rating, Barley” value (barley (winter barley); [4]) was 0, the “Plant response rating, Windgrass” value (windgrass; [1]) was 0 and the “Plant response rating, Windgrass” value (windgrass; [2]) was 0. For the same compound, the “Plant response rating, Windgrass” value (windgrass; [3]) was 20, the “Plant response rating, Windgrass” value (windgrass; [4]) was 20 and the “Plant response rating, Canarygrass” value (canarygrass; [1]) was 0. The “Plant response rating, Canarygrass” value (canarygrass; [2]) was 0, the “Plant response rating, Canarygrass” value (canarygrass; [3]) was 0 and the “Plant response rating, Canarygrass” value (canarygrass; [4]) was 0.

In the case of `CN1CC(c2ccc(F)cc2)C(C(=O)Nc2cccc(F)c2F)C1=O` (centres unmarked) [Compound 271], the “Plant response rating, Rice, W.S. Ind” value (Rice, W.S. Ind; 64 g ai/ha) is reported as 0, the “Plant response rating, Rice, W.S. Ind” value (Rice, W.S. Ind; 125 g ai/ha) is reported as 15 and the “Plant response rating, Rice, W.S. Ind” value (Rice, W.S. Ind; 250 g ai/ha) is reported as 30. For the same compound, the “Plant response rating, Rice, W.S. Ind” value (Rice, W.S. Ind; 500 g ai/ha) was 60.

For `O=C1NCC(c2cccc(Br)c2)C1C(=O)Nc1ccccc1F` (centres unmarked) [Compound 66], the “Plant response rating, Cocklebur” value (cocklebur; 16 g ai/ha) was 0, the “Plant response rating, Cocklebur” value (cocklebur; 31 g ai/ha) was 0 and the “Plant response rating, Cocklebur” value (cocklebur; 62 g ai/ha) was 0.

`O=C1NCC(c2cccc(C(F)(F)F)c2)C1C(=O)Nc1ccc(F)cc1F` (racemic) [Compound 207] was tested, and the “Plant response rating, Rice, W.S. Ind” value (Rice, W.S. Ind; 125 g ai/ha) was 0, the “Plant response rating, Rice, W.S. Ind” value (Rice, W.S. Ind; 250 g ai/ha) was 0 and the “Plant response rating, Rice, W.S. Ind” value (Rice, W.S. Ind; 500 g ai/ha) was 10.

In the case of `O=C1NCC(c2ccc(C(F)(F)F)cc2)C1C(=O)Nc1ccc(F)c(F)c1F` (centres unmarked) [Compound 232], the “Plant response rating, Pigweed, Palmer” value (pigweed, palmer; 31 g ai/ha) is reported as 0, the “Plant response rating, Pigweed, Palmer” value (pigweed, palmer; 62 g ai/ha) is reported as 0 and the “Plant response rating, Pigweed, Palmer” value (pigweed, palmer; 125 g ai/ha) is reported as 80. The “Plant response rating, Pigweed, Palmer” value (pigweed, palmer; 250 g ai/ha) was 65.

`O=C1NCC(c2ccc(F)cc2)C1C(=O)Nc1ccccc1F` (racemic) [Compound 16] was tested, and the “Plant response rating, Pigweed, Palmer” value (pigweed, palmer; 16 g ai/ha) was 0, the “Plant response rating, Pigweed, Palmer” value (pigweed, palmer; 31 g ai/ha) was 0 and the “Plant response rating, Pigweed, Palmer” value (pigweed, palmer; 62 g ai/ha) was 0. The “Plant response rating, Pigweed, Palmer” value (pigweed, palmer; 125 g ai/ha) was 0, the “Plant response rating, Pigweed, Palmer” value (pigweed, palmer; 250 g ai/ha) was 0 and the “Plant response rating, Cocklebur” value (cocklebur; 16 g ai/ha) was 0. For the same compound, the “Plant response rating, Cocklebur” value (cocklebur; 31 g ai/ha) was 0, the “Plant response rating, Cocklebur” value (cocklebur; 62 g ai/ha) was 0 and the “Plant response rating, Cocklebur” value (cocklebur; 125 g ai/ha) was 0. The “Plant response rating, Cocklebur” value (cocklebur; 250 g ai/ha) was 0.

In the case of `O=C1NCC(c2ccc(C(F)(F)F)c(F)c2)C1C(=O)Nc1cccc(F)c1F` (racemic) [Compound 247], the “Plant response rating, Sedge, Umbrella” value (sedge, umbrella; 125 g ai/ha) is reported as 0, the “Plant response rating, Sedge, Umbrella” value (sedge, umbrella; 250 g ai/ha) is reported as 0 and the “Plant response rating, Sedge, Umbrella” value (sedge, umbrella; 500 g ai/ha) is reported as 0. The “Plant response rating, Sedge, Umbrella” value (sedge, umbrella; 1000 g ai/ha) was 0, the “Plant response rating, Sedge, Umbrella” value (sedge, umbrella; 2000 g ai/ha) was 0 and the “Plant response rating, Waterplantain” value (waterplantain; 125 g ai/ha) was 80. For the same compound, the “Plant response rating, Waterplantain” value (waterplantain; 250 g ai/ha) was 85, the “Plant response rating, Waterplantain” value (waterplantain; 500 g ai/ha) was 90 and the “Plant response rating, Waterplantain” value (waterplantain; 1000 g ai/ha) was 90. For the same compound, the “Plant response rating, Waterplantain” value (waterplantain; 2000 g ai/ha) was 90.

`O=C1NCC(c2cc(F)c(F)c(F)c2)C1C(=O)Nc1ccccc1F` (racemic) [Compound 34] was tested, and the “Plant response rating, Barley” value (barley (winter barley); [1]) was 0, the “Plant response rating, Barley” value (barley (winter barley); [2]) was 0 and the “Plant response rating, Barley” value (barley (winter barley); [3]) was 0. For the same compound, the “Plant response rating, Barley” value (barley (winter barley); [4]) was 0, the “Plant response rating, Windgrass” value (windgrass; [1]) was 0 and the “Plant response rating, Windgrass” value (windgrass; [2]) was 0. The “Plant response rating, Windgrass” value (windgrass; [3]) was 0, the “Plant response rating, Windgrass” value (windgrass; [4]) was 5 and the “Plant response rating, Deadnettle” value (deadnettle; [1]) was 0. For the same compound, the “Plant response rating, Deadnettle” value (deadnettle; [2]) was 0, the “Plant response rating, Deadnettle” value (deadnettle; [3]) was 0 and the “Plant response rating, Deadnettle” value (deadnettle; [4]) was 0. The “Plant response rating, Canarygrass” value (canarygrass; [1]) was 0, the “Plant response rating, Canarygrass” value (canarygrass; [2]) was 0 and the “Plant response rating, Canarygrass” value (canarygrass; [3]) was 0. The “Plant response rating, Canarygrass” value (canarygrass; [4]) was 0.
